Our source for the IC50 values is ChEMBL document CHEMBL1136341, “Synthesis and evaluation of chiral bicyclic proline FKBP12 ligands” (Bioorg Med Chem Lett, 2003).

Some results are limits rather than exact numbers.

The nature of this experiment: In vitro binding affinity towards FKBP12 domain of peptidyl-propyl isomerase (PPIase).
By IC50 is commonly meant the point on the concentration scale where inhibition reaches its midpoint. Read a low IC50 as inhibition by little substance. Molecule `CCC(C)(C)C(=O)C(=O)N1C2CCC(C2)[C@@H]1C(=O)OCCCCc1ccccc1` (stereo partly specified) had an IC50 of 5100 nM.

`CCC(C)(C)C(=O)C(=O)N1C2CCC(C2)[C@@H]1C(=O)SCCC(c1ccccc1)c1ccccc1` (stereo partly specified): the IC50 is over 25000 nM.

Regarding `CCC(C)(C)C(=O)C(=O)N1C2CCC(C2)[C@H]1C(=O)OCCCc1ccccc1` (stereo partly specified), the IC50 amounted to 670 nM.

As for `O=C(OCCCc1ccccc1)[C@@H]1C2CCC(C2)N1S(=O)(=O)c1ccccc1` (stereo partly specified), the IC50 amounted to 650 nM.

In the case of `O=C(SCCCc1ccccc1)[C@@H]1C2CCC(C2)N1S(=O)(=O)c1ccccc1` (stereo partly specified), the IC50 amounted to 910 nM.

Take `O=C(OCCCc1ccccc1)[C@@H]1C2CCC(C2)N1S(=O)(=O)Cc1ccccc1` (stereo partly specified): the IC50 was determined as 1300 nM.

In turn, `CCC(C)(C)C(=O)C(=O)N1C2CCC(C2)[C@H]1C(=O)OCCCc1ccncc1` (stereo partly specified) displayed an IC50 of 15000 nM.

For `O=C1CC2CCCC(Sc3ccccc3)(C1)C2` (stereo unspecified), the IC50 came out at 9.2 nM.

`CCC(C)(C)C(=O)C(=O)N1C2CCC(C2)[C@H]1C(=O)SCCCc1ccccc1` (stereo partly specified): the IC50 came to 2300 nM.

Turning to `CCC(C)(C)C(=O)C(=O)N1C2CCC(C2)[C@H]1C(=O)SCCC(c1ccccc1)c1ccccc1` (stereo partly specified), the IC50 is 980 nM.

The molecule `CCC(C)(C)C(=O)C(=O)N1C2CCC(C2)[C@@H]1C(=O)OCCCc1ccccc1` (stereo partly specified) yielded an IC50 of over 25000 nM.

Regarding `O=C(SCCCc1ccccc1)[C@@H]1C2CCC(C2)N1S(=O)(=O)Cc1ccccc1` (stereo partly specified), the IC50 was found to be 720 nM.

`CCC(C)(C)C(=O)C(=O)N1C2CCC(C2)[C@@H]1C(=O)SCCCc1ccccc1` (stereo partly specified) showed an IC50 of 22000 nM.

`CCC(C)(C)C(=O)C(=O)N1C2CCC(C2)[C@H]1C(=O)OCCCCc1ccccc1` (stereo partly specified): the IC50 turned out to be 710 nM.

`COc1cc(C(=O)C(=O)N2C3CCCC2C(=O)OCCCCOC3=O)cc(OC)c1OC` gave an IC50 of 0.28 nM.

Molecule `CCC(C)(C)C(=O)C(=O)N1C2CCC(C2)[C@@H]1C(=O)OCCCc1ccncc1` (stereo partly specified) displayed an IC50 of over 25000 nM.
